Data published in paper PMC10073475, “Effect of mTOR inhibitors on sodium taurocholate cotransporting polypeptide (NTCP) function in vitro” (Frontiers in Pharmacology, 2023).

Columns and labels:
[1] = target: T1, sodium taurocholate cotransporting polypeptide (NTCP) (Homo sapiens, UniProt Q14973); assay: [3H]-taurocholate uptake inhibition in NTCP-GFP Flp-In T-REx […] cells (IC50 […] in differentiated HuH-7); type: cell-based
T1 construct: gene SLC10A1; GFP-tagged human NTCP (NM_003049)
T1 sequence (Q14973 1-349): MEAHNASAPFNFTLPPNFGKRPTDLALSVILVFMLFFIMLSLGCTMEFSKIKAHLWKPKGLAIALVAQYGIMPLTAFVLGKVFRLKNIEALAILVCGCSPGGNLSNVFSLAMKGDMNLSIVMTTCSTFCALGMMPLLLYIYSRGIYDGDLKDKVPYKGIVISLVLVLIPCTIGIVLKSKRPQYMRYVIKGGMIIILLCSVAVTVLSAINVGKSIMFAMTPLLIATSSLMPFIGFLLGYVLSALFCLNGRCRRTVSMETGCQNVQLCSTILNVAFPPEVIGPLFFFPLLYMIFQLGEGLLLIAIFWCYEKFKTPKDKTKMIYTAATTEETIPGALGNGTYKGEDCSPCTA

[2] = target: T1, sodium taurocholate cotransporting polypeptide (NTCP); assay: [3H]-taurocholate uptake inhibition at […] in NTCP-GFP Flp-In T-REx […] and differentiated HuH-7 cells; type: cell-based

Row | Structure (SMILES) | IC50 [1] [µM] | [3H]-taurocholate uptake inhibition at 10 μM in NTCP-GFP Flp-In T-REx 293 and di [2]
1 | CO[C@H]1C[C@@H]2CC[C@@H](C)[C@@](O)(O2)C(=O)C(=O)N2CCCC[C@H]2C(=O)O[C@H]([C@H](C)C[C@@H]2CC[C@@H](OCCO)[C@H](OC)C2)CC(=O)[C@H](C)/C=C(\C)[C@@H](O)[C@@H](OC)C(=O)[C@H](C)C[C@H](C)/C=C/C=C/C=C/1C [everolimus] | 6.7 ± 1.3 | 
2 | CO[C@H]1C[C@@H]2CC[C@@H](C)[C@@](O)(O2)C(=O)C(=O)N2CCCC[C@H]2C(=O)O[C@H]([C@H](C)C[C@@H]2CC[C@@H](OC(=O)C(C)(CO)CO)[C@H](OC)C2)CC(=O)[C@H](C)/C=C(\C)[C@@H](O)[C@@H](OC)C(=O)[C@H](C)C[C@H](C)/C=C/C=C/C=C/1C [temsirolimus] |  | everolimus, sirolimus and temsirolimus significantly inhibited TCA accumulation in Na^+-containing ECF buffer and NTCP-mediated TCA accumulation
